Measured values reported in ChEMBL document CHEMBL1201862, “PubChem BioAssay data set” (2004).
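Dose response: 5 concentrations. Exposure: 48 h. Format: 96-well plates. Endpoint: linear interpolation; highest concentration if not reached. GI50 marks 50% less growth.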 Activity calls are given as the source filed them. Cut-off read from the data, not from the text of the source: active = GI50 up to about 1.1 µM and inactive = higher.

Experiments:
Assay in all cases: growth of human tumour cells (NCI), 48 h
A498 = test system: A498
CAKI-1 = test system: CAKI-1
COLO 205 = test system: COLO 205
HCC 2998 = test system: HCC 2998
HL-60 = test system: HL-60
Hs-578T = test system: Hs-578T
KM12 = test system: KM12
MDA-MB-435 = test system: MDA-MB-435
MDA-N = test system: MDA-N
NCI-H226 = test system: NCI-H226
NCI-H460 = test system: NCI-H460
NCI/ADR-RES = test system: NCI/ADR-RES
OVCAR-3 = test system: OVCAR-3
PC-3 = test system: PC-3
RXF 393 = test system: RXF 393
SF-539 = test system: SF-539
SK-MEL-28 = test system: SK-MEL-28
SR = test system: SR
UO-31 = test system: UO-31
HOP-62 = test system: HOP-62

Row | SMILES | GI50 (A498) | GI50 (CAKI-1) | GI50 (COLO 205) | GI50 (HCC 2998) | GI50 (HL-60) | GI50 (Hs-578T) | GI50 (KM12) | GI50 (MDA-MB-435) | GI50 (MDA-N) | GI50 (NCI-H226) | GI50 (NCI-H460) | GI50 (NCI/ADR-RES) | GI50 (OVCAR-3) | GI50 (PC-3) | GI50 (RXF 393) | GI50 (SF-539) | GI50 (SK-MEL-28) | GI50 (SR) | GI50 (UO-31) | GI50 (HOP-62)
1 | Cc1csc2c1C(=O)c1ccsc1C2=O | 18.2 µM (inactive) | 19.6 µM (inactive) | 12.2 µM (inactive) | 6.11 µM (inactive) | 2.65 µM (inactive) | 1.81 µM (inactive) | 2.96 µM (inactive) | 0.215 µM (active) | 0.293 µM (active) | 11 µM (inactive) | 1.87 µM (inactive) | 1.87 µM (inactive) | 2.07 µM (inactive) | 2.58 µM (inactive) | 3.21 µM (inactive) | 2.01 µM (inactive) | 1.53 µM (inactive) | 4.15 µM (inactive) | 2.87 µM (inactive) | 
2 | CC(C(=O)N1c2ccccc2Sc2ccccc21)N1c2ccccc2Sc2ccccc21 (centres undefined) | 31.8 µM (inactive) |  | 85.7 µM (inactive) |  | 77.6 µM (inactive) | > 100 µM (inactive) | 72.1 µM (inactive) | > 100 µM (inactive) | > 100 µM (inactive) | 40.1 µM (inactive) | > 100 µM (inactive) | > 100 µM (inactive) | 55 µM (inactive) | 97.5 µM (inactive) | > 100 µM (inactive) | > 100 µM (inactive) | > 100 µM (inactive) | > 100 µM (inactive) | 70.1 µM (inactive) | > 100 µM (inactive)
3 | CNC(=S)N/N=C(\C)c1cc(OC)ccc1O | > 100 µM (inactive) | > 100 µM (inactive) | 0.447 µM (active) | > 100 µM (inactive) | > 31.4 µM (inactive) | > 100 µM (inactive) | > 100 µM (inactive) | > 78.9 µM (inactive) | > 100 µM (inactive) |  | > 100 µM (inactive) | 28.6 µM (inactive) | > 100 µM (inactive) | > 96.4 µM (inactive) | > 100 µM (inactive) | > 100 µM (inactive) | > 100 µM (inactive) | 43.5 µM (inactive) | > 100 µM (inactive) | > 100 µM (inactive)
4 | c1cc(C2N3CCCN2CC3)ccn1 (centres undefined) | > 100 µM (inactive) | > 100 µM (inactive) | > 100 µM (inactive) | > 100 µM (inactive) | 40.2 µM (inactive) | 22.8 µM (inactive) | > 100 µM (inactive) | 25.5 µM (inactive) | 35.1 µM (inactive) | > 100 µM (inactive) | 83.6 µM (inactive) | 61 µM (inactive) | 29.4 µM (inactive) | > 100 µM (inactive) | > 100 µM (inactive) |  | > 100 µM (inactive) | 49.9 µM (inactive) | > 100 µM (inactive) | > 100 µM (inactive)
5 | O=C(c1cccc(F)c1F)N1CCc2c([nH]c3ccccc23)C1c1ccc2c(c1)OCO2 (centres undefined) | 7.55 µM (inactive) | 15.5 µM (inactive) | 3.59 µM (inactive) |  | 3.4 µM (inactive) | 23.8 µM (inactive) | 4.92 µM (inactive) | 2.23 µM (inactive) | 2.42 µM (inactive) |  | 6.56 µM (inactive) | 5.56 µM (inactive) | 1.64 µM (inactive) | 2.97 µM (inactive) | 4.99 µM (inactive) | 4.79 µM (inactive) | 32.1 µM (inactive) | 3.61 µM (inactive) | 10.9 µM (inactive) | 0.337 µM (active)
6 | C=CC1(O)CCCC=C1COCc1ccccc1 (centres undefined) | > 100 µM (inactive) | > 100 µM (inactive) | > 100 µM (inactive) | > 100 µM (inactive) | 27.4 µM (inactive) | > 100 µM (inactive) | 50.2 µM (inactive) | 47.5 µM (inactive) | 73.8 µM (inactive) | > 100 µM (inactive) | > 100 µM (inactive) | > 100 µM (inactive) |  | 67.8 µM (inactive) | > 100 µM (inactive) |  | 71 µM (inactive) | 24.8 µM (inactive) | 45.1 µM (inactive) | > 100 µM (inactive)
7 | CCOC(=O)c1c(C)nc2c(c1-c1cn(-c3ccccc3)nc1-c1ccccc1)C(=O)c1ccccc1-2 | > 100 µM (inactive) | > 100 µM (inactive) | > 100 µM (inactive) |  |  | > 100 µM (inactive) | 0.337 µM (active) | > 100 µM (inactive) | > 100 µM (inactive) | > 100 µM (inactive) |  | > 100 µM (inactive) | > 100 µM (inactive) | > 100 µM (inactive) | > 100 µM (inactive) |  | > 100 µM (inactive) | > 10 µM (inactive) |  | > 100 µM (inactive)
8 | Cc1ccc2c(c1)C(=O)c1nc(C)ccc1C2=O | 59.3 µM (inactive) | 24.8 µM (inactive) | 17.3 µM (inactive) | 34.9 µM (inactive) | 21.3 µM (inactive) | > 100 µM (inactive) | 23.3 µM (inactive) | 21.6 µM (inactive) | 20.2 µM (inactive) | 43.5 µM (inactive) |  | 21.4 µM (inactive) | 57.1 µM (inactive) | 35.2 µM (inactive) | 66.7 µM (inactive) | 21.7 µM (inactive) | 50.7 µM (inactive) | 47.1 µM (inactive) | 26.4 µM (inactive) | 69 µM (inactive)
9 | COC(=O)c1ccc(Cc2cc(Cc3ccc(C(=O)OC)cc3)cc(Cc3ccc(C(=O)OC)cc3)c2)cc1 | > 25 µM (inactive) |  |  | > 25 µM (inactive) | > 25 µM (inactive) | > 25 µM (inactive) | > 25 µM (inactive) | > 25 µM (inactive) | > 25 µM (inactive) | > 25 µM (inactive) | > 25 µM (inactive) | > 25 µM (inactive) | > 25 µM (inactive) | > 25 µM (inactive) |  | > 25 µM (inactive) | > 25 µM (inactive) | > 25 µM (inactive) | > 25 µM (inactive) | > 25 µM (inactive)
10 | NC(=O)C[S+]([O-])CC(N)C(=O)O (centres undefined) | > 100 µM (inactive) | > 100 µM (inactive) |  | > 100 µM (inactive) |  | > 100 µM (inactive) | > 100 µM (inactive) | > 100 µM (inactive) | > 100 µM (inactive) | > 100 µM (inactive) | > 100 µM (inactive) | > 100 µM (inactive) | > 100 µM (inactive) | > 100 µM (inactive) | > 100 µM (inactive) |  | > 100 µM (inactive) | > 100 µM (inactive) | > 100 µM (inactive) | > 100 µM (inactive)
11 | Cc1cc(NCc2ccccc2)c2ccccc2[n+]1CCCCCCCCCC[n+]1c(C)cc(NCc2ccccc2)c2ccccc21.[O-][Cl+3]([O-])([O-])[O-].[O-][Cl+3]([O-])([O-])[O-] | 0.883 µM (active) | 1.44 µM (inactive) | 0.236 µM (active) | 0.562 µM (active) | 0.265 µM (active) | 0.65 µM (active) | 0.191 µM (active) | 0.39 µM (active) | 0.374 µM (active) |  | 0.228 µM (active) | 3.15 µM (inactive) |  | 0.458 µM (active) | 1.96 µM (inactive) | 0.308 µM (active) | 0.71 µM (active) | 0.223 µM (active) | 1.86 µM (inactive) | 
12 | COc1ccccc1-n1c(=O)n(C)c(=O)n1C(C)(C)C | > 100 µM (inactive) | > 100 µM (inactive) | > 100 µM (inactive) | 0.288 µM (active) | > 100 µM (inactive) | > 100 µM (inactive) | > 100 µM (inactive) | > 100 µM (inactive) | > 100 µM (inactive) | > 100 µM (inactive) | > 100 µM (inactive) | > 100 µM (inactive) | > 100 µM (inactive) | > 100 µM (inactive) | > 100 µM (inactive) | > 100 µM (inactive) | > 100 µM (inactive) | > 100 µM (inactive) | > 100 µM (inactive) | 
13 | CCCCCC(C)(C)CCC(=O)OC1OC(COC2OC(COC3OC(CO)C(O)C(O)C3O)C(O)C(O)C2O)C(O)C(O)C1O (centres undefined) | > 100 µM (inactive) |  | > 100 µM (inactive) | > 100 µM (inactive) | > 100 µM (inactive) | > 100 µM (inactive) | > 100 µM (inactive) | > 100 µM (inactive) | > 100 µM (inactive) | > 100 µM (inactive) | > 100 µM (inactive) | > 100 µM (inactive) | > 100 µM (inactive) | > 100 µM (inactive) | 6.17 µM (inactive) | > 100 µM (inactive) |  | > 100 µM (inactive) | > 100 µM (inactive) | > 100 µM (inactive)
14 | Cn1c(=O)c2nc(CCNC(=O)c3ccccc3)[nH]c2n(C)c1=O | > 100 µM (inactive) | > 100 µM (inactive) |  | > 100 µM (inactive) |  | > 100 µM (inactive) | > 100 µM (inactive) | > 100 µM (inactive) | > 100 µM (inactive) | > 100 µM (inactive) | > 100 µM (inactive) | > 100 µM (inactive) | > 100 µM (inactive) | > 100 µM (inactive) | > 100 µM (inactive) |  | > 100 µM (inactive) | > 100 µM (inactive) | > 100 µM (inactive) | > 100 µM (inactive)
15 | CC(=O)O[C@H]1C(=O)[C@@]2(C)[C@H]([C@H](OC(=O)c3ccco3)[C@]3(O)C[C@H](OC(=O)[C@H](O)[C@@H](NC(=O)c4ccccc4)c4ccccc4)C(C)=C1C3(C)C)[C@]1(OC(C)=O)CO[C@@H]1C[C@@H]2O | 3.81 µM (inactive) | 14.3 µM (inactive) | 0.114 µM (active) | 0.296 µM (active) | 0.0227 µM (active) | 0.0608 µM (active) | 0.0834 µM (active) | 0.0165 µM (active) | 0.0127 µM (active) | 0.429 µM (active) | 0.164 µM (active) | > 25 µM (inactive) | 0.0612 µM (active) | 0.12 µM (active) | 0.681 µM (active) | 0.0356 µM (active) |  | 0.0809 µM (active) | > 18.3 µM (inactive) | 0.676 µM (active)
